Experimental data as given in US20260015350A1, “AZAQUINAZOLINE PAN-KRAS INHIBITORS” (Mirati Therapeutics, Inc., priority 2022, published 2026).

Assays:
[1] = tested on: KRas-mediated phosphorylation of ERK in H358 cells; test: Inhibition of KRas-mediated phosphorylation of ERK (Cisbio HTRF pERK), H358 cells; type: cell-based; conditions: Homo sapiens; for inhibition at 0.1 µM: NCI-H358, 3 h, single point, 100 nM compound, 3 hrs
Description: Inhibition of KRas Phosphorylation of ERK (HTRF) by Exemplary Compounds of Formula (I) Cisbio HTRF Advanced PERK Assay Catalog #64[…] […] Add 10 mL of media to stop trypsinizing. Pipette the cells into a conical bottom 50 mL centrifuge tube and centrifuge 5 min×1000 rpm. […] Re-suspend the cell pellet in media, take a cell count, and then adjust the cell density using fresh media. […] Seed 6,000 cells into cell culture plate with 50 μL media. […] Use Tecan to complete the compound addition. Compounds start from 10 uM top, 3-fold dilution, and 10 doses. The final DMSO concentration is 0.8%. Dispensed 0.2 uM Trametinib as Min control. […] Incubate cell plate for 3 hrs in the incubator. […] Dilute 1 volume of 4× lysis buffer with 3 volumes of deionized water. […] Keep lysis buffer on the ice. […] At the end of the compound treatment, flick-off the media. […] Add 35 μL of lysis buffer per well using a Multidrop Combi. Then place on a plate agitator shaking at 300 rpm at 4° C. for 40 mins. […] Make up the HTRF antibody buffer. For each assay plate, mix 50 μL of d2-conjugate antibody with 950 μL of detection buffer. Similarly, mix 50 μL of Cryptate antibody with 950 μL of detection buffer. Then mix the two diluted antibodies together. […] Dispense 3.4 μL the antibody buffer to wells of an empty assay plate. Seal the plate and centrifuge plate 30 sec×1000 rpm. […] At the end of the 4° C. lysis, centrifuge the lysate plates 3 mins×1500 rpm. […] Use the Bravo to transfer 13.6 μL of lysate from cell culture plate to assay plate. Then incubate assay plate for 2 hrs at room temperature. 8. At the end of incubation, read plate on the Envision after centrifuging plate 30 sec×1000 rpm.

KRas^G12D = molecular target: T1, KRas^G12D (Homo sapiens, UniProt P01116, G12D); test: KRas binding assay (TR-FRET tracer displacement), KRas G12D
T1 construct: Biotinylated KRas (corresponding to amino acids 1-169, produced at Accelegan Inc.); biotin (biotinylated); purchased Accelegan Inc

[2] = tested on: KRas-mediated phosphorylation of ERK in AsPC-1 cells; test: Inhibition of KRas-mediated phosphorylation of ERK (Cisbio HTRF pERK), AsPC-1 cells; type: cell-based; conditions: Homo sapiens; for IC50: ASPC1, AsPC-1 cells, HTRF pERK; for inhibition at 0.1 µM: ASPC1, 3 h, single point, 100 nM compound, 3 hrs, AsPC-1 cells
Outline: (§1)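 Following a 3-hr exposure of cells to serially diluted compound (from 10 uM, 3-fold, 10 doses), cold lysis for 40 mins preceded a 2-hr room-temperature HTRF immunoassay for phosphorylated ERK.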

[3] = tested on: KRas-mediated phosphorylation of ERK in H727 cells; test: Inhibition of KRas-mediated phosphorylation of ERK (Cisbio HTRF pERK), H727 cells; type: cell-based; conditions: Homo sapiens; for IC50: NCI-H727, H727 cells, HTRF pERK; for inhibition at 0.1 µM: NCI-H727, 3 h, single point, 100 nM compound, 3 hrs, H727 cells
Outline: as §1

KRas^G12R = molecular target: T2, KRas^G12R (Homo sapiens, UniProt P01116, G12R); test: KRas binding assay (TR-FRET tracer displacement), KRas G12R
T2 construct: Biotinylated KRas (corresponding to amino acids 1-169, produced at Accelegan Inc.); biotin (biotinylated); purchased Accelegan Inc

KRas^G12V = molecular target: T3, KRas^G12V (Homo sapiens, UniProt P01116, G12V); test: KRas binding assay (TR-FRET tracer displacement), KRas G12V
T3 construct: Biotinylated KRas (corresponding to amino acids 1-169, produced at Accelegan Inc.); biotin (biotinylated); purchased Accelegan Inc

[4] = tested on: KRas-mediated phosphorylation of ERK in H460 cells; test: Inhibition of KRas-mediated phosphorylation of ERK (Cisbio HTRF pERK), H460 cells; type: cell-based; conditions: Homo sapiens; for inhibition at 0.1 µM: NCI-H460, 3 h, single point, 100 nM compound, 3 hrs
Outline: as §1

[5] = tested on: KRas-mediated phosphorylation of ERK in HCT116 cells; test: Inhibition of KRas-mediated phosphorylation of ERK (Cisbio HTRF pERK), HCT116 cells; type: cell-based; conditions: Homo sapiens; for inhibition at 0.1 µM: HCT-116, 3 h, single point, 100 nM compound, 3 hrs
Outline: as §1

[6] = tested on: KRas-mediated phosphorylation of ERK in A549 cells; test: Inhibition of KRas-mediated phosphorylation of ERK (Cisbio HTRF pERK), A549 cells; type: cell-based; conditions: Homo sapiens; for inhibition at 0.1 µM: A549, 3 h, single point, 100 nM compound, 3 hrs
Outline: as §1

T2 sequence (P01116 1-169 isoform P01116-2 G12R): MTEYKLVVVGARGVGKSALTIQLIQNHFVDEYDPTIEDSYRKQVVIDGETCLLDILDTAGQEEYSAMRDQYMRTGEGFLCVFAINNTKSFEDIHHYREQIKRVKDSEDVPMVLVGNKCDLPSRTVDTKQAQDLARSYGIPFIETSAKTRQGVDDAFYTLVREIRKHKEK
T3 sequence (P01116 1-169 isoform P01116-2 G12V): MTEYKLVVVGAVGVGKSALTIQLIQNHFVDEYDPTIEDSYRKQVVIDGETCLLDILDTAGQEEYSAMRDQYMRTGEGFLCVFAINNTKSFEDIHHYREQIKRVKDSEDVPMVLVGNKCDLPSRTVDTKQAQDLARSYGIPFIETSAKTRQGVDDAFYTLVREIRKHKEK
T1 sequence (P01116 1-169 isoform P01116-2 G12D): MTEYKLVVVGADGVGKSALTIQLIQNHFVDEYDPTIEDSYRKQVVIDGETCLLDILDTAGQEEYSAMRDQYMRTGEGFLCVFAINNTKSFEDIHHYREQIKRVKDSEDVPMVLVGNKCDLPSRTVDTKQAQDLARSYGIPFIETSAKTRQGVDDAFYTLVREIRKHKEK

IC50 (KRas^G12D) [nM] | IC50 [2] [nM] | IC50 [3] [nM] | IC50 (KRas^G12R) [nM] | IC50 (KRas^G12V) [nM] | IC50 ([1]; NCI-H358, HTRF pERK) [nM] | IC50 ([4]; NCI-H460, HTRF pERK) [nM] | IC50 ([5]; HCT-116, HTRF pERK) [nM] | IC50 ([6]; HTRF pERK) [nM] | SMILES | inhibition at 0.1 µM [1] [%] | inhibition at 0.1 µM [4] [%] | inhibition at 0.1 µM [5] [%] | inhibition at 0.1 µM [6] [%] | inhibition at 0.1 µM [2] [%] | inhibition at 0.1 µM [3] [%]
3 | 130 | 328 | 10 | 11 | – | – | – | – | CCc1c(F)ccc2cc(O)cc(-c3ncc4c(N5CCCc6ncncc6C5)nc(OC[C@@]56CCCN5C[C@H](F)C6)nc4c3F)c12 [Example 582, 4-(4-(8,9-dihydro-5H-pyrimido[5,4-c]azepin-6(7H)-yl)-8-fluoro-2-(((2R,7aS)-2-fluorohexahydro-1H-pyrrolizin-7a-yl)methoxy)pyrido[4,3-d]pyrimidin-7-yl)-5-ethyl-6-fluoronaphthalen-2-ol] | 15 | 3 | 13 | 32 | – | –
< 2 | 231 | 981 | 12 | 6 | – | – | – | – | CCc1c(F)ccc2cc(O)cc(-c3ncc4c(N5CCCc6nnncc6C5)nc(OC[C@@]56CCCN5C[C@H](F)C6)nc4c3F)c12 [Example 584, 4-(4-(8,9-dihydro-5H-[1,2,3]triazino[5,4-c]azepin-6(7H)-yl)-8-fluoro-2-(((2R,7aS)-2-fluorohexahydro-1H-pyrrolizin-7a-yl)methoxy)pyrido[4,3-d]pyrimidin-7-yl)-5-ethyl-6-fluoronaphthalen-2-ol] | 15 | 11 | 3 | 14 | -20 | -18
194 | 1570 | 1190 | 85 | 38 | – | – | – | – | CCc1c(F)ccc2cc(O)cc(-c3ncc4c(N5CCCC(C6CCOC6)C5)nc(OC[C@@]56CCCN5C[C@H](F)C6)nc4c3F)c12 (stereo partly drawn) [Example 595, 5-ethyl-6-fluoro-4-(8-fluoro-2-(((2R,7aS)-2-fluorohexahydro-1H-pyrrolizin-7a-yl)methoxy)-4-(3-(tetrahydrofuran-3-yl)piperidin-1-yl)pyrido[4,3-d]pyrimidin-7-yl)naphthalen-2-ol] | -1 | 12 | -9 | 3 | – | –
119 | 1560 | 946 | 47 | 71 | – | – | – | – | CCc1c(F)ccc2cc(O)cc(-c3ncc4c(N5CCC(C)(O)C(F)(F)CC5)nc(OC[C@@]56CCCN5C[C@H](F)C6)nc4c3F)c12 (stereo partly drawn) [Example 605, 1-(7-(8-ethyl-7-fluoro-3-hydroxynaphthalen-1-yl)-8-fluoro-2-(((2R,7aS)-2-fluorotetrahydro-1H-pyrrolizin-7a(5H)-yl)methoxy)pyrido[4,3-d]pyrimidin-4-yl)-5,5-difluoro-4-methylazepan-4-ol] | 3 | 7 | -12 | 20 | – | –
151 | 1740 | 1770 | 99 | 53 | – | – | – | – | CCc1c(F)ccc2cc(O)cc(-c3ncc4c(N5C[C@@H]6C[C@]6(c6nc(C)no6)C5)nc(OC[C@@]56CCCN5C[C@H](F)C6)nc4c3F)c12 [Example 607, 5-ethyl-6-fluoro-4-(8-fluoro-2-(((2R,7aS)-2-fluorotetrahydro-1H-pyrrolizin-7a(5H)-yl)methoxy)-4-((1R,5R)-1-(3-methyl-1,2,4-oxadiazol-5-yl)-3-azabicyclo[3.1.0]hexan-3-yl)pyrido[4,3-d]pyrimidin-7-yl)naphthalen-2-ol] | 9 | 62 | 24 | 34 | – | –
66 | 884 | 660 | 48 | 28 | 662 | 256 | 1010 | 1300 | CCc1c(F)ccc2cc(O)cc(-c3ncc4c(N5CCCC(Cn6cccn6)C5)nc(OC[C@@]56CCCN5C[C@H](F)C6)nc4c3F)c12 (stereo partly drawn) [Example 610, 4-(4-(3-((1H-pyrazol-1-yl)methyl)piperidin-1-yl)-8-fluoro-2-(((2R,7aS)-2-fluorotetrahydro-1H-pyrrolizin-7a(5H)-yl)methoxy)pyrido[4,3-d]pyrimidin-7-yl)-5-ethyl-6-fluoronaphthalen-2-ol] | 1 | 31 | -5 | 10 | – | –
4 | – | 2660 | < 2 | < 2 | – | – | – | – | CCc1c(F)ccc2cc(O)cc(-c3ncc4c(NCc5cc(C(=O)N(C)C)nn5CC#N)nc(OC[C@@]56CCCN5C[C@H](F)C6)nc4c3F)c12 [Example 657, 1-(cyanomethyl)-5-(((7-(8-ethyl-7-fluoro-3-hydroxynaphthalen-1-yl)-8-fluoro-2-(((2R,7aS)-2-fluorotetrahydro-1H-pyrrolizin-7a(5H)-yl)methoxy)pyrido[4,3-d]pyrimidin-4-yl)amino)methyl)-N,N-dimethyl-1H-pyrazole-3-carboxamide] | 27 | -18 | -9 | -2 | -24 | 19
2 | 996 | 5130 | 5 | 6 | – | – | – | – | CCc1c(F)ccc2cc(O)cc(-c3ncc4c(N5CCCn6nc(S(=O)(=O)NC)cc6C5)nc(OC[C@@]56CCCN5C[C@H](F)C6)nc4c3F)c12 [Example 676, 5-(7-(8-ethyl-7-fluoro-3-hydroxynaphthalen-1-yl)-8-fluoro-2-(((2R,7aS)-2-fluorohexahydro-1H-pyrrolizin-7a-yl)methoxy)pyrido[4,3-d]pyrimidin-4-yl)-N-methyl-5,6,7,8-tetrahydro-4H-pyrazolo[1,5-a][1,4]diazepine-2-sulfonamide] | -4 | 11 | 4 | 19 | – | –
4 | 1110 | 2690 | 8 | 5 | – | – | – | – | CCc1c(F)ccc2cc(O)cc(-c3ncc4c(N5CCC[C@@](C)(O)C5)nc(OCC56CNCC5C6)nc4c3F)c12 (stereo partly drawn) [Example 695, (3R)-1-(2-((3-azabicyclo[3.1.0]hexan-1-yl)methoxy)-7-(8-ethyl-7-fluoro-3-hydroxynaphthalen-1-yl)-8-fluoropyrido[4,3-d]pyrimidin-4-yl)-3-methylpiperidin-3-ol] | -1 | -2 | 13 | 16 | – | –
4 | 1860 | 4750 | 7 | 6 | – | – | – | – | CCc1c(F)ccc2cc(O)cc(-c3ncc4c(N5CCC[C@@](C)(O)C5)nc(OCC56CNCCC5C6)nc4c3F)c12 (stereo partly drawn) [Example 697, (3R)-1-(2-((3-azabicyclo[4.1.0]heptan-1-yl)methoxy)-7-(8-ethyl-7-fluoro-3-hydroxynaphthalen-1-yl)-8-fluoropyrido[4,3-d]pyrimidin-4-yl)-3-methylpiperidin-3-ol] | 5 | 19 | 1 | -4 | – | –
